Results from patent US20210221867A1, “Compounds Capable of Binding to Melanocortin 4 Receptor” (Novo Nordisk A/S, priority 2018, published 2021).
Starred links: 1 amine or outer side, 2 acyl side, 3 side chain; linkers in the order of their positions; H or OH if unused. Positions of bridges follow the written chain, without caps; N, C: chain ends. Non-standard residues stand in square brackets, D forms with d. Residues, ends and D or L forms follow the SMILES beside them. dPhe(4-Cl) = N[C@H](Cc1ccc(Cl)cc1)C(=O)O; X1 = NC(N)NCCC[C@@H](N[*:1])C(=O)[*:2]; X3 = NCNCCC[C@@H](N[*:1])C(=O)[*:2]; X2 = NCNCCC[C@H](N[*:1])C(=O)[*:2]; Nle = CCCC[C@H](N)C(=O)O

Key:
human MC1R [1] = target: T1, human MC1R (Homo sapiens, UniProt Q01726); assay: Functional human melanocortin receptor 1 assay (cAMP, HTRF); type: cell-based; conditions: cAMP induction, BHK cells expressing the human MC1 receptor, 30 min, 25° C.
T1 construct: expressed in transfected cells
Experimental: (§1) In order to assess the potency of the compounds on human MC1R and human MC4R cAMP signalling was measured.
(§2) cAMP induction was measured by c-AMPdynamic2 assay, HTRF 62AM4PEC system from CisBio for the human MC1R and human MC4R according to the protocol provided by the vendor. BHK cells expressing the human MC1 or MC4 receptor were generated by stable transfection with expression vectors encoding the cDNA of either MC1R or MC4R. In details; 25 μl compound—or standard solution were added in the respective wells.
(§3) Compound was reconstituted in buffer (DMEM w/o phenol red, 10 mM Hepes, lx Glutamine, 0.1% OV-albumin1, 1 mM IBMX) and serially diluted starting at 2 μM, 10-fold seven times. Dilutions were carried out in the same aforementioned buffer to the desired working concentration ranges (2× higher than the final concentration). 25 μl cell solution was then added and allowed to incubate for 30 min while lightly shaking, at 25° C. […] The provided components for the assay were reconstituted according to the CisBio assay protocol “3.1 supplied reagents and preparation procedure” in MilliQ purification system H2O and diluted 1:20 in lysis buffer. 25 μl cAMP-d2 and 25 μl Cryptate conjugate were added to all wells. Plates were centrifuged at 1500 rpm for 30 sec and incubated for 1 h, lightly shaking, at 25° C. in a hotel stacker. The plates were read on Mithras LB 940 provided by Berthold Technologies
(§4) The data were analysed by non-linear regression analysis of binding curves, using the Windows™ program GraphPad™ Prism (GraphPad Software, USA). EC50 is a measure of the potency of a given compound and is defined herein as the half maximal effective concentration of the compound which induces a response (cAMP induction) halfway between the baseline and maximum response value after a fixed reaction time. Data listed as >, indicate that the highest concentration tested had no effect, where “no effect” is defined as the highest compound concentration with agonistic effect 5% of maximal response of the reference compound NDP-alpha-MSH. […]

human MC1R [2] = target: T1, human MC1R; assay: MC1 receptor binding assay (SPA, 125I-NDP-α-MSH); conditions: displacement of 125I-NDP-α-MSH, membranes from BHK cells stably expressing the human MC1 receptor, read-out: MC1R binding IC50
Experimental: In Vitro ^125I-NDP-α-MSH Binding to Recombinant BHK Cells Stably Expressing the Human MC1 Receptor (SPA Binding Assay).
In order to assess the binding affinity of the selected compounds for the human MC1R, competitive binding assays were performed with radiolabelled NDP-alpha MSH (^125I-NDP-α-MSH) and membranes from BHK cells stably expressing the human MC1 receptor.
(§5) The BHK cell membranes are prepared from frozen or fresh cells that are homogenised in ice cold buffer (20 mM HEPES, 5 mM MgCl2, 1 mg/ml Bacitracin, pH 7.1 and one Complete™ Protease Inhibitor Cocktail Tablet per 25 ml (Catalogue number 05 056 489 001 from Roche-applied-science)) and centrifuged at 25000 g at 4° C. for 10 minutes. The supernatant is discarded, and the pellets are re-suspended in the buffer, and then homogenised and centrifuged two more times. The pellets are pooled, and the final pellet is re-suspended in buffer, aliquoted and subsequently stored at −80° C.
(§6) The SPA Binding assay was performed in 96-well white opaque plates. Each well contained: 0.5 mg PVT-WGA SPA beads, MC1 receptor expressing membrane diluted to give approximately 10% specific tracer binding, 50.000 dpm ^125I-NDP-α-MSH and relevant dilutions of test compound. The final volume in each well was 200 μl. Assay buffer was 25 mM HEPES, pH 7.0, containing 1.5 mM CaCl2, 1 mM MgSO4, 0.21% (w/v) ovalbumin, 1 mM 1,10-Phenanthroline and one Complete™ Protease Inhibitor Cocktail Tablet per 100 ml. Plates were incubated overnight (22-24 hours) at room temperature before counting for 2 minutes per well, using a TopCount NXT scintillation counter. Displacement of radio ligand is measured as reduction in light emission from SPA beads, and IC50 values are calculated by nonlinear regression analysis of sigmoidal dose-response curves in GraphPad Prism (GraphPad Software, La Jolla, Calif., USA).

human MC4R [3] = target: T2, human MC4R (Homo sapiens, UniProt P32245); assay: MC4 receptor binding assay (SPA, 125I-NDP-α-MSH); conditions: displacement of 125I-NDP-α-MSH, membranes from BHK cells stably expressing the human MC4 receptor, read-out: MC4R binding IC50
T2 construct: expressed in transfected cells
Experimental: In Vitro ^125I-NDP-α-MSH Binding to Recombinant BHK Cells Stably Expressing the Human MC4 Receptor (SPA Binding Assay).
In order to assess the binding affinity of the selected compounds for the human MC4R, competitive binding assays were performed with radiolabelled NDP-alpha MSH (^125I-NDP-α-MSH) and membranes from BHK cells stably expressing the human MC4 receptor.
as §5
as §6, with “MC4” for “MC1”

human MC4R [4] = target: T2, human MC4R; assay: Functional human melanocortin receptor 4 assay (cAMP, HTRF); type: cell-based; conditions: cAMP induction, BHK cells expressing the human MC4 receptor, 30 min, 25° C.
Experimental: as §1, §2, §3, §4

T2 sequence (P32245 whole entry): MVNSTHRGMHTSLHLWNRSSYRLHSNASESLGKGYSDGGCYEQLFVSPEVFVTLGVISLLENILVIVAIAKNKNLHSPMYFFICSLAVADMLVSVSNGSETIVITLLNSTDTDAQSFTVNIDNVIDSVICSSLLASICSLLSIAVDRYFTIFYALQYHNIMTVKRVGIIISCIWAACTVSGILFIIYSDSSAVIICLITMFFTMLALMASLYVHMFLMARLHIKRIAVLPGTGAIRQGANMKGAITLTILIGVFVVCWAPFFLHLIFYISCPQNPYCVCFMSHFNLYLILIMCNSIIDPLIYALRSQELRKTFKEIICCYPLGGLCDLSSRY
T1 sequence (Q01726 whole entry): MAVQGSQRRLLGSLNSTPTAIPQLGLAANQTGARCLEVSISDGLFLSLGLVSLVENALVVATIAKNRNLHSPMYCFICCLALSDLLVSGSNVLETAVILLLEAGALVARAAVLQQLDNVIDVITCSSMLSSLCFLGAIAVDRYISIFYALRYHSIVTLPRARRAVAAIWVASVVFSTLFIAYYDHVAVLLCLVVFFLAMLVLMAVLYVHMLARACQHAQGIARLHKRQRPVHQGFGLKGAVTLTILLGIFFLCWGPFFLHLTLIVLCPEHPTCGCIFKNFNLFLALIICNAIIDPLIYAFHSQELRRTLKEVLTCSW

SMILES | EC50 (human MC1R [1]) | IC50 (human MC1R [2]) | IC50 (human MC4R [3]) | EC50 (human MC4R [4])
CCCC[C@H](NC(=O)[C@H](CCC(=O)O)NC(=O)[C@@H](CCCNC(=N)N)NC(=O)[C@@H]1CCCN1C(=O)[C@@H]1CCCN1C(=O)[C@@H]1CSSC[C@H](NC(=O)[C@H](CCCNC(=N)N)NC(C)=O)C(=O)N2CCC[C@H]2C(=O)N[C@@H](Cc2c[nH]cn2)C(=O)N[C@H](Cc2ccccc2)C(=O)N[C@@H](Cc2c[nH]cn2)C(=O)N[C@@H](Cc2c[nH]c3ccccc23)C(=O)N1)C(=O)N[C@H](CCCNC(N)N)C(=O)N[C@H](CCCNC(=N)N)C(N)=O [Chem. 5, Ac-Arg-c[Cys-Pro-His-D- Phe-His-Trp-Cys]-Pro- Pro-D-Arg-Glu-Nle-D- Arg-D-Arg-NH2] (Ac-RCPH[dF]HWCPP[dR]E[Nle][X1][dR]-NH2; disulfide 2-8) | 172 nM | – | – | –
CCCC[C@H](NC(=O)[C@H](CCC(=O)O)NC(=O)[C@@H](CCCNC(=N)N)NC(=O)[C@@H]1CCCN1C(=O)[C@@H]1CCCN1C(=O)[C@@H]1CSSC[C@H](NC(C)=O)C(=O)N2CCC[C@H]2C(=O)N[C@@H](Cc2c[nH]cn2)C(=O)N[C@H](Cc2ccc(Cl)cc2)C(=O)N[C@@H](Cc2c[nH]cn2)C(=O)N[C@@H](Cc2c[nH]c3ccccc23)C(=O)N1)C(=O)N[C@H](CCCNCN)C(=O)N[C@H](CCCNC(=N)N)C(N)=O [Chem. 10, Ac-c[Cys-Pro-His-D-Cl- Phe-His-Trp-Cys]-Pro- Pro-D-Arg-Glu-Nle-D- Arg-D-Arg-NH2] (Ac-CPH[dPhe(4-Cl)]HWCPP[dR]E[Nle][X3][dR]-NH2; disulfide 1-7) | – | 172 nM | – | –
CCCC[C@H](NC(=O)[C@H](CCC(=O)O)NC(=O)[C@@H](CCCNC(=N)N)NC(=O)[C@@H]1CCCN1C(=O)[C@@H]1CCCN1C(=O)[C@@H]1CSSC[C@H](NC(C)=O)C(=O)N2CCC[C@H]2C(=O)N[C@@H](Cc2c[nH]cn2)C(=O)N[C@H](Cc2ccccc2)C(=O)N[C@@H](Cc2c[nH]cn2)C(=O)N[C@@H](Cc2c[nH]c3ccccc23)C(=O)N1)C(=O)N[C@@H](CCCNCN)C(=O)N[C@H](CCCNC(=N)N)C(N)=O [Chem. 15, Ac-c[Cys-Pro-His-D-Phe- His-Trp-Cys]-Pro-D- Arg-Glu-Nle-Arg-D-Arg- NH2] (Ac-CPH[dF]HWCPP[dR]E[Nle][X2][dR]-NH2; disulfide 1-7) | – | – | 0.88 nM | –
CC(=O)N[C@H](CCCNC(=N)N)C(=O)N[C@H]1CSSC[C@@H](C(=O)N2CCC[C@H]2C(=O)N2CCC[C@H]2C(=O)N[C@H](CCCNC(=N)N)C(=O)N[C@H](CCCNC(=N)N)C(N)=O)NC(=O)[C@H](Cc2c[nH]c3ccccc23)NC(=O)[C@H](Cc2c[nH]cn2)NC(=O)[C@@H](Cc2ccccc2)NC(=O)[C@H](Cc2c[nH]cn2)NC(=O)[C@@H]2CCCN2C1=O [Chem. 18, Ac-D-Arg-c[Cys-Pro-His- D-Phe-His-Trp-Cys]-Pro- Pro-D-Arg-D-Arg-NH2] (Ac-[dR]CPH[dF]HWCPP[dR][dR]-NH2; disulfide 2-8) | 179 nM | 69 nM | 0.39 nM | 0.19 nM
CCCC[C@H](NC(=O)[C@H](CCC(=O)O)NC(=O)[C@@H](CCCNC(=N)N)NC(=O)[C@@H]1CCCN1C(=O)[C@@H]1CCCN1C(=O)[C@@H]1CSSC[C@H](NC(=O)[C@H](CCCNC(=N)N)NC(C)=O)C(=O)N2CCC[C@H]2C(=O)N[C@@H](Cc2c[nH]cn2)C(=O)N[C@H](Cc2ccccc2)C(=O)N[C@@H](Cc2c[nH]cn2)C(=O)N[C@@H](Cc2c[nH]c3ccccc23)C(=O)N1)C(=O)N[C@H](CCCNC(N)N)C(=O)N[C@H](CCCNC(=N)N)C(N)=O [Chem. 6, Ac-D-Arg-c[Cys-Pro-His- D-Phe-His-Trp-Cys]-Pro- Pro-D-Arg-Glu-Nle-D- Arg-D-Arg-NH2] (Ac-RCPH[dF]HWCPP[dR]E[Nle][X1][dR]-NH2; disulfide 2-8) | 126 nM | 44.1 nM | 0.35 nM | 0.32 nM
CCCC[C@H](NC(=O)[C@H](CCC(=O)O)NC(=O)[C@@H](CCCNC(=N)N)NC(=O)[C@@H]1CCCN1C(=O)[C@@H]1CCCN1C(=O)[C@@H]1CSSC[C@H](NC(C)=O)C(=O)N2CCC[C@H]2C(=O)N[C@@H](Cc2c[nH]cn2)C(=O)N[C@H](Cc2ccccc2)C(=O)N[C@@H](Cc2c[nH]cn2)C(=O)N[C@@H](Cc2c[nH]c3ccccc23)C(=O)N1)C(=O)N[C@H](CCCNC(=N)N)C(=O)N[C@H](CCCNC(=N)N)C(=O)N[C@H](CCCNC(=N)N)C(N)=O [Chem. 16, Ac-c[Cys-Pro-His-D-Phe- His-Trp-Cys]-Pro-Pro-D- Arg-Glu-Nle-D-Arg-D- Arg-D-Arg-NH2] (Ac-CPH[dF]HWCPP[dR]E[Nle][dR][dR][dR]-NH2; disulfide 1-7) | – | 138 nM | 0.27 nM | 0.16 nM
